Activity calls are given as the source filed them. The rule behind the calls is not given here.
molecular target: Bcl-2-related protein A1 (Homo sapiens) (UniProt Q16548); experiment: inhibitors of Bim binding to Bfl-1, dose response, biochemical, multiplexed, bead-based flow cytometry (AID 1320); settings: Bim peptide-Bfl-1 binding, fluorescence; for percent span (inhibition): test concentration not given here
Sequence (Q16548 whole entry, looked up): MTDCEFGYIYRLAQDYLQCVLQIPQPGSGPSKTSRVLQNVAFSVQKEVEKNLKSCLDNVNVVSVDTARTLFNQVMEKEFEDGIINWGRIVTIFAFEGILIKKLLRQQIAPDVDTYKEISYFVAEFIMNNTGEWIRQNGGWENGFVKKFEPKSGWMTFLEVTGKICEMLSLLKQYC

SMILES	EC50
Fc1ccc(/C=C2\CCCC3=C2NC(=S)NC3c2ccc(F)cc2)cc1 (configuration not stated)	inactive

same assay, conditions: Bim peptide-Bfl-1 binding, fluorescence

SMILES	percent span (inhibition)
O=C(CSc1nnc(Cc2ccccc2)o1)NCc1ccco1	inactive
COC(=O)CSc1nccc(-c2cccs2)n1	inactive
c1csc(C2=Nn3c(nnc3-c3ccncc3)SC2)c1	inactive
Cc1cc(-c2csc(N)n2)c(C)n1CCC(C)C	inactive
O=S1(=O)N=C(N(CCO)/N=C/C=C/c2ccccc2)c2ccccc21	inactive
O=C1NC(=S)S/C1=C/c1ccc(N2CCOCC2)o1	inactive
C/C(=N\NC(=O)Cn1nc(C)c([N+](=O)[O-])c1C)c1ccc(O)cc1	inactive
COc1cccc2c(SCC(=O)N/N=C/c3ccc(O)c(O)c3)cc(C)nc12	inactive
O=C(c1ccccc1NS(=O)(=O)c1ccc(Br)s1)N1CCCC1	inactive
O=C(O)c1ccccc1NSc1ccccc1[N+](=O)[O-]	inactive
CCN1CCN(c2ccc(NC(=O)c3cccc4ncccc34)cc2)CC1	inactive
Cc1ccc(Nc2nc(-c3c(C)nc4ncccn34)cs2)cc1	inactive
CCSc1ncc(Cl)c(C(=O)Nc2sc3c(c2C(=O)NCc2cccnc2)CCCC3)n1	inactive
Cc1noc(C)c1CN1C(=O)NC(Cc2ccccc2)(Cc2ccccc2)C1=O	inactive
CCOC(=O)C1(CC/C(C)=N\NC(N)=O)CC(C)(C)OC1=O (configuration not stated)	inactive
O=C(C[n+]1ccc(-c2nnc3n2CCC3)cc1)c1ccc(Cl)cc1	inactive
CC(C)CNC(=O)c1cccc(NC(=O)c2ccc(Cl)c([N+](=O)[O-])c2)c1	inactive
CC(C)c1ccc(/C=N/NC(=O)c2ccccc2Cl)cc1	inactive
CCOc1ccc(C2=Nn3c(nnc3-c3ccco3)SC2)cc1	inactive
N/C(Cc1ccc(Cl)c(Cl)c1)=N\OC(=O)c1cccs1	inactive
Cc1nc2ncccn2c1-c1csc(Nc2ccc(O)cc2)n1	inactive
COc1ccccc1Oc1ccc2c(c1)C(=O)N(c1cccc3ncccc13)C2=O	inactive
Cc1ccc(-n2c(CSc3nc(C)cc(C)n3)nnc2SCC(=O)NCc2ccco2)cc1	inactive
C/C(=N\NC(=O)COc1ccc(C#N)cc1)c1ccccc1OC(F)F	inactive

SMILES	percent span (inhibition)
S=C1NC2=C(CCC/C2=C\c2ccccc2)C(c2ccccc2)N1 (configuration not stated)	inactive
O=C1c2ccccc2-c2onc3ccc(NCCCn4ccnc4)c1c23	inactive
CCN(CC)c1ccc(NC(=O)COc2ccccc2C#N)cc1S(=O)(=O)Nc1ccccc1OC	inactive
O=C(Nc1nnc(C2CC2)s1)C1Cc2ccccc2CN1S(=O)(=O)c1ccccc1F (configuration not stated)	inactive
Cc1ccc(NC(=O)c2cc(S(=O)(=O)NCCC3=CCCCC3)ccc2F)cc1F	inactive
BrC(=C\c1ccccc1)/C=N/N1CCN(c2ccccc2)CC1	inactive
COCCCNc1nc(=S)[nH]c2cc(OC)c(OC)cc12	inactive
Cc1ccc(NC(=O)CSc2nc3ccccc3c(=O)n2CCCN2CCCCC2)cc1Cl	inactive
COc1ccccc1NC(=O)CSc1nnc(-c2ccco2)n1Cc1ccco1	inactive
Cc1csc(Nc2ccccc2C(F)(F)F)n1	inactive
Cc1ccc2c(c1)c(C)c(C)n2CC(O)Cn1nc(C)c(Br)c1C (configuration not stated)	inactive
CCOc1ccc(C(=O)Nc2nnn(CC)n2)cc1	inactive
Cc1cc(C)nc(/N=C(\N)N2CCc3ccccc32)n1	inactive
CCOc1ccccc1C(=O)NC1CC2CCCC(C1)N2C1CC1 (configuration not stated)	inactive
O=C(C1CCC(Cn2c(=S)[nH]c3ccccc3c2=O)CC1)N1CCN(c2ccccn2)CC1 (configuration not stated)	inactive
CN1CCN(c2ccccc2N)CC1	inactive
COCCNC(=O)CN1CCC(NC(=O)Nc2ccccc2)CC1	inactive
O=C(COC(=O)c1ccccn1)NC1CCCCC1	inactive
C#CCOCCOCCOCCNc1nc(N2CCN(C(=O)[C@H](CCCCN)n3cc(CCCC)nn3)CC2)nc(N2CCN(C(=O)[C@H](Cc3ccc(O)cc3)n3cc(CCO)nn3)CC2)n1	inactive
CCN1CCN(c2cc(C)c3cc(NC(=S)N4CCN(c5ccc(F)cc5)CC4)ccc3n2)CC1	inactive
CCOC(=O)c1cccc(Nc2ncnc3ccccc23)c1	inactive
CCOC(=O)c1c(NC(=O)c2ccccc2N(C)S(=O)(=O)c2ccccc2)sc2c1CCCC2	inactive
COc1cccc2c(SCC(=O)N/N=C/c3ccccc3)cc(C)nc12	inactive
Cc1cc(-c2nn(-c3ccccc3)cc2/C=C2\SC(N)=NC2=O)ccc1OC(C)C	inactive

SMILES	percent span (inhibition)
Cc1ccc(NC2=C(Cl)C(=O)c3ccccc3C2=O)cc1	inactive
CN(/N=C/c1cccnc1)C1=NS(=O)(=O)c2ccccc21	inactive
CCC(CC)C(=O)Nc1cccc(S(=O)(=O)c2cccc(NC(=O)C(CC)CC)c2)c1	inactive
COc1ccc(CN(C)CC(=O)NC(C)c2ccccc2)c(OC)c1 (configuration not stated)	inactive
Cc1ccc(N=Cc2c(O)n(-c3ccc4c(c3)OCO4)c(=O)c3ccccc23)cc1	inactive
CC1(C)CC(=O)C(C=NCCN2CCN(CCc3ccccc3)CC2)=C(O)C1	inactive
O=C(Nc1ccncc1)c1cc2ccccc2o1	inactive
O=C(OCc1cnc(Cl)s1)c1cccc(Cl)c1Cl	inactive
COc1ccc(N=C2NC(=O)/C(=C\C=C\c3ccco3)S2)cc1	inactive
COc1cc(/C=C2\S/C(=N/S(=O)(=O)c3ccccc3)NC2=O)c([N+](=O)[O-])cc1OC	inactive
Cc1ccc(N=c2ssnc2Cl)cc1	inactive
O=[N+]([O-])c1ccc2[nH]nc(-c3ccccc3)c2c1	inactive
N/C(=N\OC(=O)CCC1CCCC1)c1ccncc1	inactive
O=C(/C=C/c1c(F)cccc1Cl)Nc1ccncc1	inactive
CCOc1ccccc1/C=N/NC(=O)CNC(=O)COc1ccccc1	inactive
COC(=O)c1c(NC(=O)COc2ncnc3ccccc23)sc(C)c1C	inactive
Cc1ccc(-c2cc(C(=O)N3CCN(c4ncccn4)CC3)c3cc(Br)ccc3n2)o1	inactive
COc1cccc(-n2nnnc2SCC(=O)Nc2cccc(NC(C)=O)c2)c1	inactive
O=C(COc1ccccc1Br)NCc1ccccn1	inactive
Cc1cc(-c2csc(N)n2)c(C)n1CCc1ccccc1	inactive
CCOC(=O)c1c2c3c(c(Cl)ccc3[nH]c1=O)C(=O)c1ccccc1-2	inactive
Cc1ccccc1OCC(=O)N/N=C/c1ccccn1	inactive
COc1cc2c(cc1OC)C(c1ccccc1F)OC(=O)C2 (configuration not stated)	inactive
